Our source for the Kd values is PMC3816012 (Structure (London, England : 1993), 2013).

The target in this test is Qcl (Legionella pneumophila, UniProt O54635). The test can be described thus: biochemical.
Sequence of Qcl (O54635 49-191 limits assumed): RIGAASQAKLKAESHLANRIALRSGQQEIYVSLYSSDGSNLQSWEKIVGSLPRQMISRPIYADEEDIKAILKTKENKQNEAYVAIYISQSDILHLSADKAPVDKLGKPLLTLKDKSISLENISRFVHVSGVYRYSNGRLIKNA

The term Kd denotes the concentration at which binding is half-saturated. A higher Kd goes with a looser complex. Regarding `NC(=O)c1ccc[n+]([C@@H]2O[C@H](COP(=O)(O)OP(=O)(O)OC[C@H]3O[C@@H](n4cnc5c(N)ncnc54)[C@H](O)[C@@H]3O)[C@@H](O)[C@H]2O)c1` [NAD+], the Kd is 400 to 600 µM.
